Assay results published in publication PMC12523843, “Kuwanon A Targeted YWHAB in Hepatocellular Carcinoma Cells to Inhibit the Raf/MEK/ERK Signaling Pathway” (Cells, 2025).

Experiments:
[1] = system: N-cadherin and E-cadherin; assay: Western blot of EMT markers; assay type: cell-based, human; conditions: 48 h
Description: (§1) Cells were harvested using a cell scrape and washed three times with PBS buffer, then lysed on ice in RIPA lysis buffer (Beyotime, Shanghai, China). Protein concentration was determined using a BCA protein assay kit (Beyotime, Shanghai, China). Subsequently, 60 µg of protein was mixed with 5× loading buffer and heated in a 100 °C water bath for 15 min. The samples were subjected to SDS-PAGE electrophoresis, followed by transfer onto a PVDF membrane (Millipore, Darmstadt, Germany). The membrane was blocked with 5% BSA for 2 h at room temperature and incubated sequentially with primary and HRP-conjugated secondary antibodies. Finally, signal detection was performed using an ECL detection system (Clinx, Shanghai, China).

YWHAB = molecular target: T1, YWHAB (Homo sapiens, UniProt P31946); assay: Epoxy-activated Sepharose 6B pull-down; assay type: binding; design: host or cells: HEK 293T; conditions: KA immobilized on Sepharose 6B, HEK 293T overexpressing YWHAB
T1 sequence (P31946 1-246): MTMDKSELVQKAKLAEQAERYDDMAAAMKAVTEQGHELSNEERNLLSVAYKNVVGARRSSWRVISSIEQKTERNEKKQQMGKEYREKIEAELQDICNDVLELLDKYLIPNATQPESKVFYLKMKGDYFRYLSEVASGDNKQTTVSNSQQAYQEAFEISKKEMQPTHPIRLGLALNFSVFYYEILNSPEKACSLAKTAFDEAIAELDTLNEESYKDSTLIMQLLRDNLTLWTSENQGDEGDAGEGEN
Description: Epoxy-activated Sepharose 6B (Cytia, Washington, DC, USA) affinity media was used to bind KA molecules following the media’s absorbency swelling. The Sepharose 6B media was co-incubated with KA or DMSO and gently agitated overnight at room temperature. The product was then thoroughly washed through at least three cycles. Any remaining active groups were blocked using 1 M ethanolamine, incubated for 4 h at 37 °C. The 6B media, now bound with KA or DMSO, were further incubated with the cell lysate sample overnight, with gentle agitation at 4 °C. The media was washed again through a minimum of three cycles. A suitable amount of loading buffer was added, and the samples were heated in a 100 °C water bath for 15 min. The resulting supernatant was then ready for use in SDS-PAGE electrophoresis.

[2] = system: HCC cells (MHCC97 H and SMMC 7721); assay: MTT cell proliferation assay; assay type: cell-based, human; conditions: 1–7 days
Description: (§2) Cell viability was assessed using MTT experiments. Cells, together with KA, were seeded into 96-well plates at a density of 2000 cells per well with three replicates per condition. DMSO was used as a control. At designated time points, 20 μL of MTT (Sigma, St. Louis, MO, USA) solution was added to each well and incubated for 3 h. After removing the culture medium, 200 μL of DMSO was added to dissolve the formazan crystals. The absorbance was then measured using a microplate reader at a wavelength of 560 nm.

MHCC97 H cells = assay: Transwell migration screen of selected compounds; assay type: cell-based, human; conditions: compounds at an IC50 concentration
Description: The Transwell assay measured the migration and invasion of cells by calculating the number of cells that passed through the material. Prior to the Transwell migration assay, cells were serum-starved in FBS-free culture medium for 24 h. The cells were then detached using trypsin, washed 1–2 times with PBS, and resuspended in DMEM. Approximately 50,000–100,000 cells were seeded into the upper chamber of the Transwell insert. The lower chamber was filled with 600 μL of complete medium containing the test compound. The Transwell system was incubated for 12 h under standard culture conditions (37 °C, 5% CO2). After incubation, the migrated cells on the lower membrane surface were fixed with 4% paraformaldehyde (PFA) and stained with 0.1% crystal violet. Non-migrated cells remaining in the upper chamber were carefully removed with a cotton swab. Finally, the stained cells were visualized under a microscope. If matrix gel was needed, it should be added according to the instructions (Beyotime, Shanghai, China) before the cells were seeded.

YWHAB dimer [3] = molecular target: T2, YWHAB dimer (Homo sapiens, UniProt P31946); assay: Co-immunoprecipitation of MYC-YWHAB and FLAG-YWHAB in HEK 293T; assay type: cell-based; design: host or cells: HEK 293T; conditions: 25 μM and 30 μM, HEK 293T overexpressing MYC-YWHAB and FLAG-YWHAB
T2 sequence (P31946 1-246): T1 sequence (P31946 1-246)

[4] = system: phosphorylation of MEK1/2 and ERK1/2; assay: Western blot of MAPK pathway; assay type: cell-based, human
Description: as §1

YWHAB dimer [5] = molecular target: T2, YWHAB dimer; assay: Blue-Native PAGE of YWHAB dimer; assay type: cell-based; design: endogenous in cells; host or cells: MHCC97 H and SMMC 7721; conditions: HCC cell lines and FLAG-YWHAB overexpressed HEK 293T cells
Description: Blue/Clear Native PAGE (Real Times, Beijing, China) is an electrophoretic technique used to separate protein complexes from biological samples. Instead of SDS, Coomassie Brilliant Blue G-250 binds to the protein, imparting a negative charge, allowing separation in the PAGE gel based on the molecular weight of the proteins. HCC cells treated with KA or DMSO for 48 h were collected using a cell scraper and lysed on ice in IP cell lysis buffer for one hour. A suitable amount of 4× BN/CN-PAGE protein loading buffer and 5% G-250 stain (for loading) was added to the supernatant of the protein sample, followed by BN-PAGE electrophoresis in the Native PAGE gel. After electrophoresis and membrane transfer, the PVDF membrane (Millipore, Darmstadt, Germany) was blocked with 5% BSA for two hours at room temperature. HPR-linked primary and secondary antibodies were incubated for detection, and protein bands were visualized using the ECL detection system (Clinx, Shanghai, China)

SMMC 7721 cells = assay: MTT IC50 determination in SMMC 7721; assay type: cell-based; conditions: Homo sapiens, gradient concentrations, 48 h
Description: as §2

[6] = system: MHCC97H and SMMC 7721 cells; assay: CCK8 cell viability screen of mulberry active substances; assay type: cell-based, human; conditions: 10 μM, 48 h
Description: The CCK8 assay is used to investigate the effect of compounds on cell viability by measuring the amount of formazan dye. Firstly, 8000 cells were inoculated into each well of the 96-well plate with three replicates per condition. At the same time, add the corresponding mulberry active substances. After 48 h of incubation, 20 μL of the Cell Counting Kit-8 (CCK8) reagent (Beyotime, Shanghai, China) was added to each well. After being cultured under 37 °C and 5% carbon dioxide for 2–3 h, the absorbance was measured at 450 nm.

CDK and cyclin proteins = assay: Western blot of CDK and cyclin proteins; assay type: cell-based, human; conditions: 48 h, MHCC97 H and SMMC 7721
Description: as §1

[7] = YWHAB-overexpressing HCC cells, KA 15 μM

CC(C)=CCc1c(-c2ccc(O)c3c2OC(C)(C)C=C3)oc2cc(O)cc(O)c2c1=O [KA, Kuwanon A]
E-cadherin level (Western blot) ([1]; MHCC97 H and SMMC 7721): upregulation of E-cadherin | N-cadherin level (Western blot) ([1]; MHCC97 H and SMMC 7721): downregulation of N-cadherin | N-cadherin/E-cadherin ratio under YWHAB overexpression [1, 7]: minimal changes | interaction with YWHAB (pull-down) (YWHAB): direct interaction | HCC cell proliferation (continuous MTT) ([2]; 10 μM and 15 μM, vs DMSO): significantly inhibited HCC cell proliferation in a dose-dependent manner | proliferation inhibition by KA under YWHAB overexpression (MTT) [2, 7]: partly reversed the proliferation inhibition | migration of MHCC97 H (Transwell) (MHCC97 H cells): significantly inhibited the migration of MHCC97 H | dimerization levels of YWHAB (co-immunoprecipitation) (YWHAB dimer [3]): reduced dimerization levels of YWHAB | KA's effects on MEK1/2 and ERK1/2 phosphorylation under YWHAB overexpression ([4]; YWHAB-overexpressing HCC cells, KA 15 μM, 48 h): partly abrogated | phosphorylation levels of MEK1/2 and ERK1/2 (Western blot) ([4]; indicated concentrations 48 h, 15 μM for 24 or 48 h): significant downregulation of the phosphorylation levels of MEK1/2 and ERK1/2 | proportion of YWHAB dimer (Native-PAGE) (YWHAB dimer [5]): proportion of YWHAB dimer had decreased | IC50 (SMMC 7721 cells): 9.85 µM | viability of HCC cells (CCK8) [6]: significantly inhibited the viability of HCC cells | cell cycle-related proteins (Western blot) (CDK and cyclin proteins): downregulation of corresponding cell cycle-related proteins
